One compound from patent publication US20120238488A1, “COMPOUNDS AND METHODS FOR TREATING NEOPLASIA” (priority 2009, published 2012) can be followed below.

Molecules are shown by their SMILES.

The test system of assay [1] is SKMEL28 (Melanoma). The experiment in a line: SRB assay, SKMEL28. In kind it is cell-based, human. The protocol:
(§1) SRB assays were performed according to standard National Cancer Institute Guidelines. Briefly, human tumor cells from different cancer panels were seeded into 96 well plates in 100 μL (plating densities ranging from 5-40,000 cells/well depending on the doubling time of individual cell lines) in serum-containing media for twenty-four hours prior to the addition of the compounds to be assayed. After 24 hours, one plate of each cell line was fixed in situ with trichloroacetic acid (TCA). The fixed slides were used to determine the cell population for each cell line at the time of drug addition (Tz). Each compound to be tested was solubilized in DMSO and the desired concentration was then added to the medium and diluted serially 1:10 to provide a total of five or ten drug concentrations plus control (in a final volume of 200 μL). The starting dose before any dilution was 100 uM for all compounds.
(§2) Following drug addition, each culture was incubated for forty-eight hours. The assay was terminated with the addition of cold TCA. The supernatant was discarded, and the plates were washed with tap water and air dried. Sulforhodamine B (SRB) solution was then added to each well. After staining, the bound stain was solubilized and the absorbance was read on an automated plate reader at a wavelength of 515 nm.
(§3) Using the absorbance measurements [time zero, (Tz), control growth, (C), and test growth in the presence of drug at the ten concentration levels (Ti)], the percentage growth was calculated at each of the drug concentrations levels. Percentage growth inhibition was calculated as:
(§4) [(Ti−Tz)/(C−Tz)]×100 for concentrations for which Ti>/=Tz
(§5) [(Ti−Tz)/Tz]×100 for concentrations for which Ti<Tz.
(§6) Three dose response parameters were calculated for each experimental agent. Growth inhibition of 50% (GI50) was calculated from [(Ti−Tz)/(C−Tz)]×100=50, which was the drug concentration resulting in a 50% reduction in the net protein increase (as measured by SRB staining) in control cells during the drug. The drug concentration resulting in total growth inhibition (TGI) was calculated from Ti=Tz. The LC50 (concentration of drug resulting in a 50% reduction in the measured protein at the end of the drug treatment as compared to that at the beginning) indicating a net loss of cells following treatment was calculated from [(Ti−Tz)/Tz]×100=−50.
(§7) Values were calculated for each of these three parameters when the level of activity was reached; however, if the effect was not reached or was exceeded, the value for that parameter was expressed as greater or less than the maximum or minimum concentration tested.
(§8) Table 4 summarizes results characterizing the effects of compound Nos. 120, 12, 61, 1, and 56 on GI50, which measures the cell growth inhibitory power of the compound, TGI, which measures cytostatic effect (TGI) and LC50, which signifies cytotoxic effect. Each of these parameters in Table 4 was calculated in a sulforhodamine B (SRB) assay, which provides a colorimetric measure of a compound's anti-cancer activity. SRB assays were performed with compounds of the invention in 22 different cell lines (shaded in light gray in Table 4), which represent nine different tumor panels (lung, melanoma, ovary, prostate, CNS, breast, pancreas colon and renal). Ouabain and digoxin were used as controls. Paclitaxel was added as a non-Na^+K^+-ATPase inhibitor control.
(In general: In SRB staining, fixed cells bind dye roughly in proportion to their protein.)

Assay [2] relates to CAKJ1 (Renal). The experiment in a line: SRB assay, CAKJ1. Format: cell-based, human. The note with it: 48 h. The protocol:
as §1, §2, §3, §4, §5, §6, §7, §8

Assay [3] has as its system A549 (Lung). The experiment in a line: SRB assay, A549. In kind it is cell-based, human. The protocol: as §1, §2, §3, §4, §5, §6, §7, §8
Assay [4] concerns SF268 (CNS). Kind of assay: SRB assay, SF268. In kind it is cell-based. The note with it: Homo sapiens. The protocol:
as §1, §2, §3, §4, §5, §6, §7, §8

In assay [5] the test system is HCT116 (Colon). Kind of assay: SRB assay, HCT116. In kind it is cell-based. The note with it: Homo sapiens. On the procedure:
as §1, §2, §3, §4, §5, §6, §7, §8

Assay [6] has as its system DU145 (Prostate). Kind of assay: SRB assay, DU145. In kind it is cell-based, human. On the procedure: as §1, §2, §3, §4, §5, §6, §7, §8
For assay [7], the system named is ADRRES (Ovary). The experiment in a line: SRB assay, ADRRES (multidrug resistant NCI-ADR-RES). In kind it is cell-based, human. The note with it: 48 h. The protocol: NCI-ADR-RES cells have been classified as ovarian cancer cells by the National Cancer Institute.
as §1, §2, §3, §4, §5, §6, §7, §8
Table 4 also presents results with Compound Nos. 120, 12, 61, 1, and 56 in a well characterized drug resistant cell line, NCI-ADR-RES, that expresses high levels of MDR1 and P-glycoprotein.

The subject of assay [8] is PCJ (Prostate). Kind of assay: SRB assay, PCJ. Format: cell-based. The note with it: Homo sapiens, 48 h. On the procedure: as §1, §2, §3, §4, §5, §6, §7, §8

Broadly, the GI50 is the concentration that inhibits growth by half. By TGI is commonly meant the concentration at which net growth stops. A low value points to more potent growth arrest. In the case of `CC(=O)O[C@H]1C(=O)[C@@]2(C)[C@H]([C@H](OC(=O)c3ccccc3)[C@]3(O)C[C@H](OC(=O)[C@H](O)[C@@H](NC(=O)c4ccccc4)c4ccccc4)C(C)=C1C3(C)C)[C@]1(OC(C)=O)CO[C@@H]1C[C@@H]2O` [Paclitaxel, reference compound], the CC50 in assay [1] (Homo sapiens, SK-MEL-28, 48 h, read-out: LC50) was > 10000 nM; in assay [2] (Homo sapiens, read-out: LC50), 11600 nM; in assay [3] (Homo sapiens, A549, 48 h, read-out: LC50), 15300 nM; in assay [4] (SF-268, 48 h, read-out: LC50) it was > 10000 nM; in assay [5] (HCT-116, 48 h, read-out: LC50), > 10000 nM; in assay [6] (Homo sapiens, DU-145, 48 h, read-out: LC50), 143 nM. For the same compound, the CC50 was 10600 nM in assay [7] (Homo sapiens, NCI/ADR-RES, read-out: LC50) and > 10000 nM in assay [8] (read-out: LC50). In addition, the GI50 was 2300 nM in assay [1] (Homo sapiens, SK-MEL-28, SKMEL28, SRB, 48 h); < 1 nM in assay [2] (Homo sapiens, CAKJ1, SRB); < 1 nM in assay [3] (Homo sapiens, A549, SRB, 48 h); < 100 nM in assay [4] (SF-268, SF268, SRB, 48 h, read-out: GI50); < 100 nM in assay [5] (HCT-116, HCT116, SRB, 48 h); < 1 nM in assay [6] (Homo sapiens, DU-145, DU145, SRB, 48 h). Besides, the GI50 in assay [7] (Homo sapiens, NCI/ADR-RES, ADRRES, SRB) is 1050 nM; in assay [8] (PCJ, SRB), < 100 nM. The concentration for total growth inhibition (TGI) in assay [1] (SKMEL28, SRB, 48 h) was >10000 nM; in assay [2] (CAKJ1, SRB) it was 4969 nM; in assay [3] (A549, SRB, 48 h) it was 6138.4 nM; in assay [6] (DU145, SRB, 48 h) it was 8.6 nM; in assay [7] (ADRRES, SRB), 5803.4 nM. The IC (TGI) in assay [4] (SF-268, SF268, SRB, 48 h, read-out: TGI) is 1930 nM; in assay [5] (HCT-116, HCT116, SRB, 48 h), 2240 nM; in assay [8] (PCJ, SRB) it was > 10000 nM.
